Laboratory results: patent US20210128685A1, “PEDF-DERIVED PEPTIDES FOR PROMOTING MEIBOMIAN GLAND REGENERATION AND USES THEREOF” (BRIM Biotechnology, Inc., priority 2018, published 2021)

Tests used:
limbus stem cells = conditions: rabbit; cited from earlier work
[1] = Alanine scanning and variants of the 29-mer (activities)
[2] = Measurement of tear volume (phenol red thread tear test); format: in vivo, C57BL/6 mice; conditions: old mice, weekly subconjunctival injection up to 4 weeks; weeks 1, 2, 3, 4 and 8
Method: (§1) Twelve to fifteen (12-15) months old C57BL/6 mice and 4-8 months old C57BL/6 mice were used. These mice were kept in standard pathogen-free environment at 24° C.±1° C., relatively humidity 60%±10%. All procedures were approved by the Mackay Memorial Hospital Review Board for animal investigation and were conducted in accordance with the ARVO statement for the Use of Animals in Ophthalmic and Vision Research. Mice were anesthetized by an intraperitoneal injection of a mixture of zoletil (6 mg/kg) and xylazine (3 mg/kg). One drop of 0.5% proparacaine hydrochloride (Alcaine; Alcon, Fort Worth, Tex., USA) was given before any ocular procedure.
(§2) The 29-mer was reconstituted in DMSO to a final concentration 100 μM. A separated dose of 10 μl of 29-mer (100 μM) mixed with 90 μl of phosphate-buffered saline (PBS) was injected into the upper and lower conjunctival fornix. 10 μl of DMSO mixed with 90 μl of PBS served as a control. […]
The amount of tears was measured with the phenol red thread tear test using ZONE-QUICK cotton threads (Yokota, Tokyo, Japan).^19,20 After general anesthesia, the lower eyelid was pulled down slightly, and a 1 mm portion of the thread was placed on the palpebral conjunctiva at the point ⅓ of the distance from the lateral canthus. […] The red portion of the thread is measured in millimeters.

acinar progenitor cells = test: 5-Bromo-2'-deoxyuridine (BrdU) incorporation assay in upper eyelids after subconjunctival injection; format: in vivo, C57BL/6 mice; conditions: for BrdU-positive cells per acinus: 24 hours after subconjunctival injection; for BrdU-positive cells in acinar base (cell proliferation): day 5 after single subconjunctival injection
Method: as §1
(§3) The 29-mer was reconstituted in DMSO to a final concentration 100 μM. A separated dose of 10 μl of 29-mer (100 μM) mixed with 90 μl of phosphate-buffered saline (PBS) was injected into the upper and lower conjunctival fornix. 10 μl of DMSO mixed with 90 μl of PBS served as a control. To evaluate the effect of 29-mer on tear film break-up time (TBUT) and tear secretion of old mice, subconjunctival injection of 29-mer was introduced weekly till one month and then followed up for two months.
After subconjunctival injection of 29-mer or DMSO, 5-Bromo-2′deoxyuridine (BrdU) 0.1 mg/g of body weight was injected intraperitoneally. The upper eyelids were harvested at 24 hours to evaluate the proliferation of acinar progenitor cells. To study the mitosis of cells, mice were administered by intraperitoneal injections of BrdU daily for 3 days, and the upper eyelids were harvested at day 5. Before performing immunohistochemistry of BrdU, slides were treated with 1 N HCL at 95° C. for 20 minutes.
Immunohistochemistry (IHC) was performed as previously described and modified.^22 Formalin-fixed, paraffin-embedded, mice specimens were deparaffinized in xylene and rehydrated in a graded series of ethanol concentrations. Slides were blocked with 10% goat serum for 60 minutes and then incubated with primary antibody against BrdU (1:800 dilution), PEDF (1:50), or p63 (1:200) overnight at 4° C. The slides were subsequently incubated with the appropriate peroxidase-labeled goat immunoglobulin (1:500 dilution; Chemicon, Temecula, Calif.) for 20 minutes and then incubated with chromogen substrate (3,3-diaminobenzidine) for 2 minutes before counterstaining with hematoxylin. Quantification was estimated based on high quality images captured using a Pannoramic digital slide scanners (3Dhistech Ltd. Budapest, Hungary).

Meibomian gland = test: Eyelid whole mount Oil Red O (ORO) staining, MG size; format: in vivo, C57BL/6 mice; conditions: old mice, weekly subconjunctival injection, at one month
Method: as §1, §2
At one month, upper eyelids were subjected to whole mount Oil Red O (ORO) staining. The size of MG tissue in whole mount was quantified using the color range selection and histogram tool with a computer-assisted image analyzer (Adobe Photoshop 7.0) and was calculated in Pixels. […]

[3] = system: acinar progenitor cells (p63-expressing cells); test: Immunohistochemistry of stem cell marker p63 in upper eyelids 5 days after single treatment; format: in vivo, C57BL/6 mice; conditions: aging (old) mice
Method: as §1, §2
Immunohistochemistry (IHC) was performed as previously described and modified.^22 Formalin-fixed, paraffin-embedded, mice specimens were deparaffinized in xylene and rehydrated in a graded series of ethanol concentrations. […] Quantification was estimated based on high quality images captured using a Pannoramic digital slide scanners (3Dhistech Ltd. Budapest, Hungary).

[4] = Tear film break-up time (TBUT); format: in vivo, C57BL/6 mice; conditions: old mice, weekly subconjunctival injection up to 4 weeks; week 1 to week 4, difference significant up to 8 weeks
Method: as §1, §2
To avoid the reduced lipids secretion resulting from no eye blinking under long-term anesthesia, Tear break-up time (TBUT)^19,20 was performed immediately after mice were anesthetized. […] After three compulsory blinks, TBUT was recorded in […] under a slit-lamp with a blue-free barrier filter. […]

meibocytes = test: Oil Red O staining of eyelid cryosections for lipids; format: in vivo, C57BL/6 mice; conditions: old mice, versus DMSO
Method: as §1, §3
Eyelid tissues were embedded in OCT and sectioned at 8 μm of thickness. Frozen sections were placed in 60% 2-propanol for 1 minute, stained with filtered ORO solution for 15 minutes, rinsed with PBS and counterstained with hematoxylin.^4

[5] = system: myogenic stem cells and C2C12 myoblasts; conditions: cited from earlier work

44-mer: 44-mer motif of PEDF, amino acid positions Val78-Thr121 (VLLSPLSVATALSALSLGAEQRTESIIHRALYYDLISSPDIHGT; UniProt P36955 78-121, looked up, fragment)
stem cells proliferation and regeneration in the limbus (limbus stem cells): induce stem cells proliferation and regeneration

SLGAEHRTESVIHR (listed as Mus musculus) [mo-14mer, mouse variant of the 14-mer]
activities of 29-mer variants [1]: active

SLGAEHRTESVIHRALYYDLITNPDIHST (listed as Mus musculus) [mo-29mer, mouse variant of the 29-mer]
activities of 29-mer variants [1]: active

SLGAEQRTESIIHRALYYDLISSPDIHGT (listed as Homo sapiens) [29-mer, PEDF-derived short peptide, human PEDF residues 93-121 (Ser93-Thr121)]
Tear secretion test versus control [2]: invariant
BrdU-positive cells per acinus (acinar progenitor cells; old mice): 1.67±0.58 cells/per acinus
BrdU-positive cells in acinar base (cell proliferation) (acinar progenitor cells; old mice): 4.29±1.19
BrdU-positive cells per acinus (acinar progenitor cells; young mice): 2.35±0.73 cells/per acinus
BrdU-positive cells in acinar base (cell proliferation) (acinar progenitor cells; young mice): 6.70±1.35
MG acinar size, whole mount ORO, upper eyelids (Meibomian gland): 2347530±34986.4 pixels/eyelid
number of p63-expressing cells per acinus [3]: 10.98±2.75
TBUT versus control [4]: significantly longer
ORO staining within the cytoplasm of differentiating meibocytes, cross sections (meibocytes): more overall ORO staining
proliferation of myogenic stem cells and C2C12 myoblasts [5]: induce proliferation
